Results: US5198433A, “Lactamimides as calcium antagonists” (Merrell Dow Pharmaceuticals Inc., priority 1992, dated 1993)
Values belong to the molecule of their own block, whether it stands above or below them.

What was measured:
[1] = molecular target: [^3 H]d-cis-diltiazem binding to rat whole brain membranes (calcium ion-channel protein); assay: [^3 H]d-cis-Diltiazem binding assay (displacement from rat whole brain membranes); design: species or system rat (male Sprague-Dawley); conditions: for pKi: Table 1, displacement of 3H diltiazem, rat brain membranes, n = 3, Cheng & Prusoff; for IC50: ligand […]
Experimental: The whole brain from male Sprague-Dawley rats (200-300 g) was dissected and homogenized in cold 50 mM Tris-HCl buffer (pH 7.4) for 2 x 30 second periods by Polytron (Brinkmann, setting No. 5). The homogenate was washed 2 times (48,000 ×g for 10 minutes, 4° C.) with intermittent resuspension of the pellet in fresh buffer. The final pellet was resuspended to an original tissue concentration of 100 mg/ml in Tris-HCl buffer. […] The reaction was terminated by rapid filtration under a vacuum through 0.05% polyethylenimine-pretreated Whatman GF/B glass fiber filters. Filters were immediately washed 2 times with 4 ml of cold Tris-HCl buffer. Pretreatment of the filters with 0.05% polyethylenimine served to eliminate [^3 H]d-cis-diltiazem binding to the filter. The filters were dried and the radioactivity in the filters was extracted overnight in scintillation fluid.

[2] = molecular target: T1, K^+ -depolarized guinea pig ileum or taenia (Cavia porcellus); assay: Antagonism of Ca^++ -induced contractions of K^+ -depolarized guinea pig taenia or ileum; type: cell-based; conditions: for pA2: Table 1, guinea pig ileum or taenia, K^+ -depolarized, Ca^++ -induced contraction, Arunlakshana & Schild; for mean pA2 value (95% confidence interval), Schild plot / mean slope (±S.D.) of Schild plot: FIG. 6, 40 mM K^+ -depolarized guinea pig ileum
T1 construct: pieces of ileum, 2 cm in length, from male guinea pigs (200-400 g) were set up in isolated organ baths; from tissue; host or cells: strips of taenia from the caecum or pieces of ileum of male guinea pigs
T1 sequence (O35505 whole entry): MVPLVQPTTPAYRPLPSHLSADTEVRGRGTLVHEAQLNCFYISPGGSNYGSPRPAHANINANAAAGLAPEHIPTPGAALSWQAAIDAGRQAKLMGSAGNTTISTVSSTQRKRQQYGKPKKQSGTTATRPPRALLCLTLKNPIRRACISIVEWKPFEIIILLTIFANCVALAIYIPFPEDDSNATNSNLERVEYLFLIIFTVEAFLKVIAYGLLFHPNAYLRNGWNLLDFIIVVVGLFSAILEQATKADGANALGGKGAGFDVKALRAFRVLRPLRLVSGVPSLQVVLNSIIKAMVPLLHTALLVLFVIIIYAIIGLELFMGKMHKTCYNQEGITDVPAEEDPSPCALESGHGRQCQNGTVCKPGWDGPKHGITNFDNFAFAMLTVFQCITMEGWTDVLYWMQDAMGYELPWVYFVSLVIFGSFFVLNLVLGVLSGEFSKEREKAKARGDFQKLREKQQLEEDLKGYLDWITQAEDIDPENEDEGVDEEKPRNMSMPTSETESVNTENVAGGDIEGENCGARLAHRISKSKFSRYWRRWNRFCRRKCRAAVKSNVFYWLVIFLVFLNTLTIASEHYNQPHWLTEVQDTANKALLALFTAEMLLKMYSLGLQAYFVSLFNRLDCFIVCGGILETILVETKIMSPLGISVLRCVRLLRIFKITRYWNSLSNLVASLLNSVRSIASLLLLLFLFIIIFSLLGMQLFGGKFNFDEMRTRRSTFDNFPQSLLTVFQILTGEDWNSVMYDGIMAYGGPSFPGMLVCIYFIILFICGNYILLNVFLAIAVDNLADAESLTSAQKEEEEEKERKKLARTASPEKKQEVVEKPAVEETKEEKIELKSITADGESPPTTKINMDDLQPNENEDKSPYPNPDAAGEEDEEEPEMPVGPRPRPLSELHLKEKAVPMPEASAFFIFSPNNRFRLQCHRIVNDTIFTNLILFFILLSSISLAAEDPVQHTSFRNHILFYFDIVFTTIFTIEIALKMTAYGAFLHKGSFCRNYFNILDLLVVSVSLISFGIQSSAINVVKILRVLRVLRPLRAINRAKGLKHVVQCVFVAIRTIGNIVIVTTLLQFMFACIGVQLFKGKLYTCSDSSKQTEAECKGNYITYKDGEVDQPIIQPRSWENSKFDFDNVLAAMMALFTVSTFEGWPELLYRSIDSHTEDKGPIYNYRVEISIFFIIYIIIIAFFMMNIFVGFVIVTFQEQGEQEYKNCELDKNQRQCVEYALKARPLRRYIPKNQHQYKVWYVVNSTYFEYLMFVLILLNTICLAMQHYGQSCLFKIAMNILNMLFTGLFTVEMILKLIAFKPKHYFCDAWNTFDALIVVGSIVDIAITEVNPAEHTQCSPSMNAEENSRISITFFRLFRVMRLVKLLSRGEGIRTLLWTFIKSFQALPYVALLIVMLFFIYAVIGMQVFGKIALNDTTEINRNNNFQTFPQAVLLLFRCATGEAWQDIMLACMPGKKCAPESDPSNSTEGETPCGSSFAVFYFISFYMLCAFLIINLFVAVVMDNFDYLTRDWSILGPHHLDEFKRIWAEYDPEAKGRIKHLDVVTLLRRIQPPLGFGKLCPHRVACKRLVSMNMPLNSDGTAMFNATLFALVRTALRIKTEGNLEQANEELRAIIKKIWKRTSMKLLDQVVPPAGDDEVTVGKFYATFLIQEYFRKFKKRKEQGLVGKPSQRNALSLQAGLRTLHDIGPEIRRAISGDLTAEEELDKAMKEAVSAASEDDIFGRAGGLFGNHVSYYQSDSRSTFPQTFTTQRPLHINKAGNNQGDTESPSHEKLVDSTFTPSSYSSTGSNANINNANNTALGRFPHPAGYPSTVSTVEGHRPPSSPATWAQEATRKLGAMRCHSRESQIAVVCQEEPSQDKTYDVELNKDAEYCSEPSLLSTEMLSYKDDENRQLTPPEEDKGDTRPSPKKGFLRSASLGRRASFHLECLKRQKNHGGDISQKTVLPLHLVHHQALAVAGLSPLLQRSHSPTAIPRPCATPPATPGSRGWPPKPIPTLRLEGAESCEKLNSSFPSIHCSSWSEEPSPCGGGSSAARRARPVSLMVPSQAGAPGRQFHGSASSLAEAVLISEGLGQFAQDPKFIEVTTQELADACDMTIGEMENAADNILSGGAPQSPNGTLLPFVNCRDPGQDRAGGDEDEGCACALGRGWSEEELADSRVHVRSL
Experimental: Strips of taenia from the caecum or pieces of ileum, 2 cm in length, from male guinea pigs (200-400 g) were set up in isolated organ baths in Ca^++ -free K^+ Tyrode's solution (mM NaCl 137, KCl 40, NaH2 PO4 0.4, NaHCO3 11.9, glucose 5.5) and gassed with 95% O2, 5% CO2 at 37° C. Contractions were measured with isotonic transducers with a 1 g load. Cumulative dose-response curves were obtained. Tissues were then washed and incubated with the compounds for 20-25 minutes and then Ca^++ concentration response curves re-established. […] Dose ratios were determined graphically at ED50 values from the Ca^++ dose-response curve and Schild plots were constructed to determine pA2 value using inverse regression line analysis. Alternatively, when only one concentration of an antagonist was used, pA2 values were calculated according to the method of J. M. Van Rossum, Arch. Int. Pharmacodyn Ther. 143: 299-330 (1963).

[3] = molecular target: T2, [^3 H]nitrendipine binding to rat heart membranes (calcium ion-channel protein) (Rattus norvegicus, UniProt P22002); assay: [^3 H]Nitrendipine binding assay (enhancement of binding to rat heart membranes); design: species or system rat (male Sprague-Dawley); conditions: ligand 0.1 nM, mean ± SEM; for activity at 1 µM: 10^-6 M; for activity at 0.1 µM: 10^-7 M
T2 construct: Membranes were prepared from the hearts of male Sprague-Dawley rats; from tissue; host or cells: heart membranes of male Sprague-Dawley rats
Experimental: Membranes were prepared from the hearts of male Sprague-Dawley rats and [^3 H]nitrendipine binding was conducted as described in detail by H. R. Lee, et al., J. Pharmacol Exp. Ther. 233:611-616, (1985), as modified by F. J. Ehlert, et al., Biochem. Biophys. Rec. Common. 104:937-943, (1982). The ability of compounds tested at 10^-6 and 10^-7 M to enhance [^3 H]nitredepine binding was taken as indicative of diltiazem-like calcium antagonistic properties.
Values are the mean ± SEM of single experiments run in triplicate at
the concentrations of drugs indicated. Ligand concentration was 0.1 nM an
control specific binding was 49.6 ± 1.7 fmol/mg protein.

[4] = tested on: calcium ion-channel protein; conditions: [^3 H]nitrendipine as the ligand; cited from earlier work

SMILES: CCCC(CN=C1CCCCCCCCCCCN1)(c1ccccc1)c1ccccc1 [Test Compound 1, N-(2,2-diphenylpentyl)azacyclotridecan-2-imine]
pKi ([1]; 25° C.): 6.49
activity at 1 µM ([3]; 25° C.): 123 ± 6%
activity at 0.1 µM ([3]; 25° C.): 119 ± 6%
activity at 1 µM ([3]; 37° C.): 224 ± 14%
activity at 0.1 µM ([3]; 37° C.): 252 ± 13%
mean pA2 value (95% confidence interval), Schild plot [2]: 7.27 (6.95-8.12)
mean slope (±S.D.) of Schild plot [2]: 0.94 (0.21)

SMILES: c1ccc(-c2ccccc2N=C2CCCCCCCCCCCN2)cc1 [Test Compound 2, 2-(o-biphenylylimino)azacyclotridecane]
activity at 1 µM ([3]; 25° C.): 123 ± 10%
activity at 0.1 µM ([3]; 25° C.): 117 ± 7%
activity at 1 µM ([3]; 37° C.): 152 ± 15%
activity at 0.1 µM ([3]; 37° C.): 152 ± 9%
mean pA2 value (95% confidence interval), Schild plot [2]: 6.59 (6.33-7.17)

SMILES: C1CCCCCNC(=NC2CC3CCC2C3)CCCCC1 (stereo not shown) [Test Compound 4, 2-(2-norbornylimino)azacyclotridecane]
pKi ([1]; 25° C.): 5.92
activity at 1 µM ([3]; 25° C.): 106 ± 4%
activity at 0.1 µM ([3]; 25° C.): 105 ± 4%
activity at 1 µM ([3]; 37° C.): 116 ± 8%
activity at 0.1 µM ([3]; 37° C.): 108 ± 7%
pA2 [2]: 6.07

SMILES: CCCC(CN=C1CCCCCCN1)(c1ccccc1)c1ccccc1 [Test Compound 5, 2-[(2,2-diphenylpentyl)imino]octahydroazocine]
activity at 1 µM ([3]; 37° C.): 122 ± 3%
activity at 0.1 µM ([3]; 37° C.): 111 ± 9%
pA2 ([2]; listed as 5): 6.60

SMILES: CCCC(CN=C1CCCCCN1)(c1ccccc1)c1ccccc1 [Test Compound 6, hexahydro-2-[(2,2-diphenylpentyl)imino]azepine]
pA2 ([2]; listed as 6): 6.64

SMILES: CCCC(CN=C1CCCCN1)(c1ccccc1)c1ccccc1 [Test Compound 7, 2-[(2,2-diphenylpentyl)imino]piperidine]
pA2 ([2]; listed as 7): 6.15

SMILES: c1ccc(C(N=C2CCCCCCN2)C23CC4CC(CC(C4)C2)C3)cc1 (stereo not drawn) [Test Compound 8, 2-[[α-(1-adamantanyl)benzyl]imino]octahydroazocine]
pKi ([1]; 25° C.): 6.72
pA2 [2]: 6.63

SMILES: CCCCOc1ccc(C(N=C2CCCCCN2)c2ccccc2)cc1 (stereo not drawn) [Test Compound 9, 2-[(p-butoxy-α-phenylbenzyl)imino]hexahydroazepine]
pKi ([1]; 25° C.): 6.17
pA2 [2]: 5.86

SMILES: Clc1ccc(C(N=C2CCCCCN2)c2ccc(Cl)cc2)cc1 [Test Compound 10, 2-[(p-chloro-α-[p-chlorophenyl]benzyl)imino]hexahydroazepine]
pKi ([1]; 25° C.): 6.08
pA2 [2]: 6.33

SMILES: FC(F)(F)c1cccc(C(N=C2CCCCCN2)c2ccccc2)c1 (stereo not shown) [Test Compound 11, hexahydro-N-[phenyl[3-(trifluoromethyl)phenyl]methyl]-2H-azepin-2-imine]
pKi ([1]; 25° C.): 5.92
pA2 [2]: 5.60

SMILES: COc1ccc(CCN(C)CCCC(C#N)(c2ccc(OC)c(OC)c2)C(C)C)cc1OC (stereo not shown) [verapamil]
effect on [^3 H]nitrendipine binding [4]: displaces [^3 H]nitrendipine in a non-competitive manner

Continued, in another order:

pKi ([1]; 25° C.): 5.54
pA2 [2]: 5.54
SMILES: C1CCNC(=N[C@@H]2CCC[C@@H]2C2CCCCC2)CC1 (relative stereo) [Test Compound 12, 2-[(cis-2-cyclohexylcyclopentyl)imino]hexahydroazepine]

pKi ([1]; 25° C.): 5.26
pA2 [2]: 4.84
SMILES: c1ccc([C@H]2CCC[C@H]2N=C2CCCCCCCN2)cc1 (relative stereo) [Test Compound 14, octahydro-2-[(cis-2-phenylcyclopentyl)imino]azonine]

pKi ([1]; 25° C.): 4.16
SMILES: c1ccc([C@H]2CCC[C@H]2N=C2CCCCCN2)cc1 (relative stereo) [Test Compound 15, hexahydro-2-[(cis-2-phenylcyclopentyl)imino]azepine]

pKi ([1]; 25° C.): 4.96
SMILES: c1ccc([C@@H]2CCC[C@@H]2N=C2CCCN2)cc1 (relative stereo) [Test Compound 16]

pA2 [2]: 5.47
SMILES: CC(N=C1CCCCCN1)c1cccc2ccccc12 (single isomer, unassigned; (+)) [Test Compound 25, (+)-hexahydro-N-[1-(1-naphthalenyl)ethyl]2H-azepin-2-imine]

pA2 [2]: 5.18
SMILES: CC(N=C1CCCCCN1)c1cccc2ccccc12 (single isomer, unassigned; (-)) [Test Compound 26, (-)-hexahydro-N-[1-(1-naphthalenyl)ethyl]2H-azepin-2-imine]

pKi ([1]; 25° C.): 4.70
pA2 [2]: 5.47
SMILES: C1CCNC(=NC2C3CC4CC(C3)CC2C4)CC1 (stereo not shown) [Test Compound 13, 2-(2-adamantanylimino)hexahydroazepine]

activity at 1 µM ([3]; 25° C.): 83 ± 8%
activity at 0.1 µM ([3]; 25° C.): 96 ± 5%
activity at 1 µM ([3]; 37° C.): 262 ± 10%
activity at 0.1 µM ([3]; 37° C.): 218 ± 4%
mean slope (±S.D.) of Schild plot [2]: 1.00 (0.15)
SMILES: COc1ccc([C@@H]2Sc3ccccc3N(CCN(C)C)C(=O)[C@@H]2OC(C)=O)cc1 [Test Compound 17, (1)-cis-5-2-(dimethylamino)etnyl]2,3-dihydro-3-hydroxy-2-(p-methoxyphenyl)-1,5-benzothiazepin-4(5H)-one acetate, reference compound]
effect on [^3 H]nitrendipine binding [4]: enhances binding

IC50 ([1]; 25° C.): 1260 ± 90 nM
IC50 ([1]; 37° C.): 1900 ± 230 nM
SMILES: COc1cc(CN=C2NCCC2=Cc2ccc(C)cc2)ccc1O [Test Compound 19, 2-methoxy-4-[[[3-[(4-methylphenyl)methylene]-2-pyrrolidinyliden]amino]methyl]phenol]

pA2 [2]: 6.19
SMILES: c1ccc(C(CCN=C2CCCCCN2)c2ccccc2)cc1 [Test Compound 20, hexahydro-2-[3,3-diphenylpropylimino)azepine]

pA2 [2]: 6.14
SMILES: c1ccc(C(CN=C2CCCCCN2)c2ccccc2)cc1 [Test Compound 21, hexahydro-2-(2,2-diphenylethylimino)azepine]

pA2 ([2]; listed as 22): 6.31
SMILES: CCCC(CN=C1CCCCCN1)(c1ccccc1)c1ccccc1 [Test Compound 22, hexahydro-2-[(2,2-diphenylpentyl)imino]azepine]

pA2 ([2]; listed as 23): 6.04
SMILES: CCCC(CN=C1CCCCN1)(c1ccccc1)c1ccccc1 [Test Compound 23, 2-[(2,2-diphenylpentyl)imino]piperidine]

pA2 ([2]; listed as 24): 6.63
SMILES: CCCC(CN=C1CCCCCCN1)(c1ccccc1)c1ccccc1 [Test Compound 24, 2-[(2,2-diphenylpentyl)imino]octahydroazocine]
